We go through 80 compounds from the METLIN SMRT retention time set (Domingo-Almenara et al. 2019).

The structures appear in SMILES notation.

The data set can be described thus: gradient 5% acetonitrile 3 min, to 50% in 2 min, to 85% in 15 min, held 3 min, 100 µL/min. The conditions noted are these: column: Zorbax Extend-C18 2.1 x 50 mm; eluents: water / acetonitrile, 0.1% formic acid. The method in brief:
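Pure standards were run in mixtures of ~100 molecules by HPLC coupled to a quadrupole time-of-flight mass spectrometer. The column was a Zorbax Extend-C18 (2.1 × 50 mm, 1.8 μm) at 100 μL/min, with water and acetonitrile each containing 0.1% formic acid, in positive and negative ionization mode. Dead and dwell volumes were 40 μL and 900 μL. Retention time was taken from computationally picked adduct peaks, each manually inspected, with data collected over 3 months.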
The compound `O=C(NC1CCCCC1)N1CCC(OC2CCN(Cc3ccccc3)CC2)CC1` gave an RP-LC retention time of 663 s. Take `Cc1cc(O)c(C(C[N+](=O)[O-])c2ccc(Cl)cc2Cl)c(=O)o1` (stereo not given): the RP-LC retention time came out at 803 s.

Consider `Cc1oc2ccn(Cc3ccccc3F)c(=O)c2c1C(=O)NCc1ccccc1`, for which the RP-LC retention time turned out to be 1070 s. In the case of `Cc1nc(N2CCCC2)c2c(C(=O)NCCc3ccc(Cl)cc3)c(C)oc2n1` it was 782 s.

`CCc1ccc(S(=O)(=O)N2CCc3c(c(-c4nnc(-c5ccc(F)cc5)o4)nn3C)C2)cc1`: the RP-LC retention time was found to be 1050 s.

`Cc1ccc(-c2noc(CN3C(=O)COc4cc(Cl)ccc43)n2)cc1C` gave an RP-LC retention time of 1200 s.

In turn, `Cc1ccc(N2CCC(NC(=O)Nc3ccccc3)C2=O)cc1` (stereo not given) registered an RP-LC retention time of 811 s. With `c1ccc(-c2nnc(CN3CCCCC3)o2)cc1`, the RP-LC retention time amounted to 566 s. In the case of `COc1cccc(S(=O)(=O)N2CCC3(CC2)N(C2CCCC2)C(=O)CS3=O)c1` (stereo not given) it was 780 s; in that of `O=C(NCC(=O)N1CCN(c2ccccc2Cl)CC1)c1c[nH]c2ccccc12`, 785 s. To `Cc1cccc(C)c1NC(=O)CN1CCCC1` belongs 633 s. In the case of `O=C(C1CCN(S(=O)(=O)c2ccc(-c3noc(C4CC4)n3)cc2)CC1)N1CCOCC1`, the RP-LC retention time was found to be 805 s.

For `CCCn1c(=O)c(C)nc2cc(-c3noc(/C=C/c4cccs4)n3)ccc21`, the RP-LC retention time is 792 s. In the case of `CCN(CC)S(=O)(=O)c1ccc(Cl)c(-c2nnc(-c3ccccc3OC)o2)c1` it was 1020 s; in that of `CCC(C)(C)NS(=O)(=O)c1cc(-c2nc(C)c(C(=O)N3CCCC3)s2)n(C)c1`, 838 s. In the case of `O=C(CC1CCCC1)Nc1ccc2c(c1)CCC(=O)N2` it was 684 s; in that of `Cn1c(SCC(=O)N2CCCc3ccccc32)nc2cc(-c3ccccc3)sc2c1=O`, 1180 s; in that of `NS(=O)(=O)c1ccc(CCNCc2ccc(-c3ccc(Cl)cc3Cl)o2)cc1`, 800 s. For `O=C(Cc1ccccc1)N1CC(Oc2ccc(-c3nc(-c4ccccc4)no3)cc2)C1`, the RP-LC retention time was 1150 s. In the case of `O=C(NCc1ccco1)c1c(O)c2cccnc2n(-c2cccc(F)c2)c1=O` it was 1070 s. As for `Cc1ccc(C)c(CNC(=O)Cn2c(=O)c3nnc(C)n3c3ncccc32)c1`, the RP-LC retention time came to 712 s.

As to `O=C(Nc1ccc(F)c(F)c1)C1CCN(C(=O)c2ncn3c2COC(c2ccccc2)C3)CC1` (stereo not given), the RP-LC retention time was 819 s. In the case of `O=C(NCCCN1CCOCC1)C1CCCN(c2cnc3nccnc3c2)C1` (stereo not given) it was 565 s; in that of `O=S(=O)(c1cccc(-c2cn3cc(Cl)ccc3n2)c1)N1CCCC1`, 805 s; in that of `COc1ccc(NC(=O)c2cnc(N3CCN(c4ccc(OC)cc4)CC3)nc2N)cc1`, 731 s.

Compound `CN1C(=O)C2CCCCN2c2ccc(C(=O)N3CCN(c4ccc(Cl)cc4)CC3)cc21` (stereo not given) displayed an RP-LC retention time of 1020 s. Regarding `CCN(CC)c1ccc(NC(=O)Cn2cc3c(n2)CCCCC3)c(C)c1`, the RP-LC retention time worked out at 674 s. In the case of `Cc1ccc(-c2nc(C3CC(=O)N(c4ccc(F)cc4)C3)no2)cc1C` (stereo not given) it was 1100 s.

For `COc1ccc(C(=O)N2C[C@@H]3C[C@H]2C[C@@H]3NC(=O)c2cccs2)cn1`, the RP-LC retention time came to 666 s. In the case of `Cc1cc(=O)n(CC(=O)Nc2ccccc2F)c(N2CCCC2)n1` it was 616 s; in that of `CCOc1ccc(N2CCn3c2nnc(C(=O)NCC2CCCO2)c3=O)cc1` (stereo not given), 637 s; in that of `CN1C(=O)c2cccn2CC1CNC(=O)c1cc(CN2CCOCC2)on1` (stereo not given), 548 s. In the case of `CCCC(=O)Nc1ccc2c(c1)CN(C(=O)c1ccc(F)c(F)c1)C(C(=O)N(C)C)C2` (stereo not given) it was 736 s; in that of `Fc1cccc(-c2noc(Cc3nnc(-c4cccc(Cl)c4)o3)n2)c1`, 1110 s; in that of `CCn1cc(C(=O)Nc2ccccc2C)c(=O)c2ccc(C)nc21`, 1090 s. Compound `Cc1ccc(N2CCC(NC(=O)NC3CCCC3)C2=O)cc1C` (stereo not given) displayed an RP-LC retention time of 788 s.

As for `Cc1cc(NC(=O)c2ccccc2-c2nc(-c3ccccc3)no2)no1`, the RP-LC retention time was determined as 925 s.

With `Cc1ccc2c(=O)cc(C(=O)NCC(c3ccccc3)N(C)C)oc2c1C` (stereo not given), the RP-LC retention time amounted to 636 s. To `O=C(Cc1cccs1)NC1CCCN(c2cc(-c3ccccc3)[nH]n2)C1` (stereo not given) belongs 758 s. To `O=C(c1ccc(F)cc1)N1CCC(n2c(-c3ccoc3)nc3cccnc32)C1` (stereo not given) belongs 712 s; to `Cc1cnc(C2CCC2)n1CC1CCCN(Cc2cn(C)c3ccccc23)C1` (stereo not given), 583 s; to `CSc1ccc(NC(=O)c2cn3c(n2)CCCC3)cc1`, 624 s. In the case of `COc1ccccc1-c1csc(-c2nnn(-c3cccc(Cl)c3)c2N)n1` it was 1210 s; in that of `CCC(=O)NC1CCc2cccc(OC)c2C1` (stereo not given), 821 s.

`CN1CCC(NC(=O)c2ccc(-c3nnc4ccc(NC(=O)C5CCC5)cn34)cc2)CC1`: the RP-LC retention time came out at 606 s. To `COc1nc2ccccc2nc1N1CCCC(C(=O)NC2CCCC2)C1` (stereo not given) belongs 1000 s. Compound `COc1ccc(CCNC(=O)c2cccc3c2C(=O)N(CC2CCCO2)C3)c(OC)c1OC` (stereo not given) gave an RP-LC retention time of 875 s. In the case of `CCc1onc(C)c1C1CCCN1C(=O)Nc1cccc(F)c1` (stereo not given) it was 832 s; in that of `CN(C)c1ccc(C(=O)Nc2cc(-c3ccccn3)no2)cc1`, 812 s. In the case of `Cc1ccc(CNC(=O)C2(C)CCN(S(=O)(=O)c3ccc(Br)s3)CC2)cc1` it was 1050 s; in that of `Cc1cc(OCC(=O)N2CCC[C@H]2C(=O)O)c2c3c(c(=O)oc2c1)CCCC3`, 754 s; in that of `Cn1cnc(S(=O)(=O)N2CCC(c3noc(-c4ccccn4)n3)C2)c1` (stereo not given), 622 s.

`Cc1ccc2cc(CCC(=O)NCc3ccncc3)c(=O)[nH]c2c1` gave an RP-LC retention time of 570 s. In the case of `CCCC(=O)Nc1nc(-c2ccc3c(c2)NC(=O)C(C)O3)c(C)s1` (stereo not given) it was 812 s; in that of `Cc1ccc(-c2nc3ccc(Cl)cn3c2Nc2ccc3c(c2)OCO3)cc1`, 708 s; in that of `COc1ccc(N2CCN(c3cc(SCC(=O)NCC4CCCO4)ncn3)CC2)cc1` (stereo not given), 713 s. Compound `Cc1noc(-c2cc(=O)n(CC(=O)Nc3ccc(F)c(F)c3)c3ccccc23)n1` registered an RP-LC retention time of 890 s.

`Cc1ccc(C)c(S(=O)(=O)N2CCC3(CC2)NCCN=C3NCc2ccc(F)cc2)c1` registered an RP-LC retention time of 772 s. To `CCOc1ccccc1NC(=O)c1c(O)c2cccnc2n(-c2ccc(F)cc2)c1=O` belongs 1280 s; to `Cc1ccc(C)c(Nc2c(-c3nc(C)no3)cnc3nc(C)ccc23)c1`, 813 s; to `Cc1ccc(-c2noc(-c3cccc(S(=O)(=O)NC4CCCC4)c3)n2)cc1`, 1360 s. In the case of `COc1ccc(-c2cc3nn(CC(=O)Nc4ccc(C)c(C)c4)c(=O)n3c(C)n2)cc1` it was 980 s; in that of `O=C(Nc1nc(C(=O)NCc2nc(-c3ccccc3)no2)co1)c1ccsc1`, 707 s; in that of `CCC(=O)Nc1ccc(-n2cnc(C(=O)N3CC(C)CC(C)C3)c2)nc1` (stereo not given), 772 s. In turn, `O=C(Nc1ccc(N2CCOCC2)cc1)c1cc2ccccc2o1` displayed an RP-LC retention time of 757 s.

For the compound `COc1ccc(C)cc1NC(=O)N1CCN(c2ccc(-c3ccc4c(c3)OCO4)nn2)CC1`, the RP-LC retention time worked out at 659 s.

As for `Cc1cccc2cc(-c3noc(C(C)C)n3)c(NCCc3ccc(S(N)(=O)=O)cc3)nc12`, the RP-LC retention time is 1270 s. In the case of `CC(C)c1noc(-c2ccnc(-n3cnc(C(=O)NC4CCCC4)c3)c2)n1` it was 693 s; in that of `COc1ccc(C(=O)NC2CCN(c3ccc(F)cc3)C2=O)cc1` (stereo not given), 756 s. In the case of `Cc1cc(OCC(O)Cn2c(C3CC3)nc3ccccc32)cc(C)c1Cl` (stereo not given) it was 795 s. In the case of `Cc1cccc(NC(=O)C2CCN(S(=O)(=O)c3ccc4c(c3)sc(=O)n4C(C)C)CC2)n1` it was 815 s. `CCOC(=O)c1c(C)oc2nc(C)nc(NCCc3ccc(C)cc3)c12` gave an RP-LC retention time of 1330 s. In the case of `O=S(=O)(c1cccnc1)N1CCC2(CC1)NCCc1c2[nH]c2ccccc12` it was 640 s; in that of `Cc1cc(C)n(CCC(=O)N2C[C@H]3C[C@H](C2)[C@H]2CCCC(=O)N2C3)n1`, 600 s; in that of `Cc1cc(C)c2c(N3CCCC3)nc(C(=O)NCc3cccs3)nc2n1`, 643 s. In the case of `Cc1nnc(N2CCCC(C(=O)N3CCCCC3)C2)c2nn(-c3ccc(Cl)cc3)c(C)c12` (stereo not given) it was 741 s. To `COc1ccccc1N1CCNCC1` belongs 627 s; to `COc1cccc(CNC(=O)Cn2c(=O)c3cc(C)nn3c3ncccc32)c1`, 698 s; to `Fc1ccc(-c2nc(-c3ccc4nncn4c3)no2)c(Cl)c1`, 849 s. Compound `O=C(CCCN1C(=O)c2cccc3cccc(c23)C1=O)Nc1ccon1` displayed an RP-LC retention time of 723 s.
